Test results published in US8449794B2, “Non-resonant two-photon absorption recording material and non-resonant two-photon absorption compound” (FUJIFILM Corporation, priority 2010, dated 2013).
Where two headings read alike, the source gives them in different places.

What was measured:
[1] = measurement wavelength vicinity of 525 nm; value in document; cited from earlier work
[2] = Two-photon absorption cross-sectional area by Z scanning method; assay type: physicochemical; conditions: measurement wavelength 550 nm; chloroform solution 1×10^−3
Protocol: Measurement of a two-photon absorption cross-sectional area of the synthesized compound is carried out by Z scanning method described in Mansoor Sheik-Baha et al., IEEE, Journal of Quantum Electronics, 1990, 26, 760. Z scanning method is a widely used method as the measuring method of a non-linear optical constant. In the vicinity of the focus of converged laser beam, a measuring sample is moved along the beam and the change of the quantity of transmitting light is recorded. Since the power density of incident light changes depending upon the position of a sample, the quantity of transmitting light attenuates in the vicinity of the focus in the case where non-linear absorption is present. A two-photon absorption cross-sectional area is computed by fitting the change of the quantity of transmitting light to the theoretical curve predictable from the intensity of incident light, the size of converging spot of light, the thickness of a sample and the concentration of a sample. As the light sources for the measurement of a two-photon absorption cross-sectional area, a Ti-sapphire pulse laser (pulse duration: 100 fs, repetition: 80 MHz, average output: 1 W, peak power: 100 kW) obtained by combining a […] amplifier and light parametric amplifier is used. […]

[3] = Evaluation of solubility of two-photon absorption compound; assay type: physicochemical; conditions: coating solvent dichloromethane
Protocol: The solubility of the compounds of the invention D-11, D-41 and D-405 and comparative compound R-2 in dichloromethane and 2-butanone is evaluated.

Row | SMILES | Two-Photon Absorption Cross-Sectional Area [1] | Two-Photon Absorption Cross-Sectional Area [2] | Solubility (in words) [3]
1 | CCCCCCC(CCCC)Oc1ccc(-c2ccc(-c3ccc(-c4ccc(OC(CCCC)CCCCCC)cc4)cc3)cc2)cc1 (stereo not drawn) [Compound R-1] | 15 GM | – | –
2 | N#Cc1ccc(-c2ccc(-c3ccc(-c4ccc(C(=O)c5ccccc5)cc4)cc3)cc2)cc1 [Compound R-2] | – | 200 GM | small in solubility
